Results published in US20220313701A1, “MODULATORS OF TREX1” (Constellation Pharmaceuticals, Inc., priority 2019, published 2022).

Tests used:
full length human TREX1 = molecular target: T1, full length human TREX1 (Homo sapiens, UniProt Q9NSU2); experiment: TREX1 Biochemical Assay (fluorescence assay, degradation of dsDNA substrate); conditions: 150 pM TREX1, 60 nM dsDNA substrate, 25 minutes at room temperature
T1 construct: N-terminally His-Tev tagged full length human TREX1; His-Tev (His tag with TEV site) (N); made in house; host or cells: E. coli
T1 sequence (Q9NSU2 1-314): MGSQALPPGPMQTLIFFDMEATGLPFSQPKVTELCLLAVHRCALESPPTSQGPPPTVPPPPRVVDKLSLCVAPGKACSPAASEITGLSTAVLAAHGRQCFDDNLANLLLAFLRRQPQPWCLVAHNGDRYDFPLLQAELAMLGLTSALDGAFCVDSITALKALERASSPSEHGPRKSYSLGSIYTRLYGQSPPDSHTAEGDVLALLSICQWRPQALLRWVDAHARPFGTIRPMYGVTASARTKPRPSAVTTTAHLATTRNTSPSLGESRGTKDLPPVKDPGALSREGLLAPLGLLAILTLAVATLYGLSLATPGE
Procedure, shortened: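 N-terminally His-Tev-tagged enzyme expressed in E. coli, 150 pM, with 60 nM dual-labelled dsDNA (TEX615/quencher) in pH 7.4 Tris buffer with MgCl2, 1% DMSO; 10-point dose-response, 25 min at room temperature, then EDTA quench. Fluorescence at 615 nm (excitation 570 nm); IC50 from four-parameter fit against pre-quenched and no-inhibitor controls.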

[1] = molecular target: T2, human TREX2 (residues M44-A279) (Homo sapiens, UniProt Q9BQ50); experiment: TREX2 Biochemical Assay (fluorescence assay, degradation of dsDNA substrate); conditions: 2.5 nM TREX2, 60 nM dsDNA substrate, 25 minutes at room temperature
T2 construct: human TREX2 (residues M44-A279, expressed in E. coli); His-Tev (His tag with TEV site) (N); made in house; host or cells: E. coli
T2 sequence (Q9BQ50 44-279 isoform Q9BQ50-1): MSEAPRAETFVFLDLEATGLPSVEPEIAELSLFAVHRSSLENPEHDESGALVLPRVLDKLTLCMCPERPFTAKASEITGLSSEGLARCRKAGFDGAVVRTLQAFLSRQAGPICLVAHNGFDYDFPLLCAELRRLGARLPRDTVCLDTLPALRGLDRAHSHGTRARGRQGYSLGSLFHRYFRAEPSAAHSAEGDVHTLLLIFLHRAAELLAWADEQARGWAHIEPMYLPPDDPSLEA
Procedure, shortened: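 Final conditions: 2.5 nM His-Tev-tagged TREX2 (E. coli-expressed), 60 nM fluorophore/quencher-labelled dsDNA, 50 mM Tris pH 7.4, 150 mM NaCl, 100 mM MgCl2, 1% DMSO; 10-point compound dose-response. Incubated 25 min at room temperature, then EDTA-quenched; fluorescence read at ex 570/em 615 nm. IC50 from four-parameter fit against pre-quenched and no-inhibitor controls.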

## Cc1nn(C)cc1-c1cncc(N2CCC(O)(c3ccc(F)c(F)c3)CC2)n1 [Example 9, 4-(3,4-difluorophenyl)-1-(6-(1,3-dimethyl-1H-pyrazol-4-yl)pyrazin-2-yl)piperidin-4-ol]
Full length human TREX1
  IC50: < 0.1 µM
[1]
  IC50: 10 to 100 µM

## Cc1cc(C2(O)CCN(c3cncc(-c4cn(C)nc4C)n3)CC2)ccc1F [Example 92, 1-(6-(1,3-dimethyl-1H-pyrazol-4-yl)pyrazin-2-yl)-4-(4-fluoro-3-methylphenyl)piperidin-4-ol]
Full length human TREX1
  IC50: 0.1 to 1 µM
[1]
  IC50: > 100 µM

## Cc1nn(C)cc1-c1csc(N2CCC(O)(c3ccc(F)c(F)c3)CC2)n1 [Example 97, 4-(3,4-difluorophenyl)-1-(4-(1,3-dimethyl-1H-pyrazol-4-yl)thiazol-2-yl)piperidin-4-ol]
Full length human TREX1
  IC50: 1 to 10 µM
[1]
  IC50: > 100 µM

## Cc1nc(N2CCC(O)(c3ccc(F)c(F)c3)CC2)cc(-n2ccnc2-c2ccccn2)n1 [Example 106, 4-(3,4-difluorophenyl)-1-(2-methyl-6-(2-(pyridin-2-yl)-1H-imidazol-1-yl)pyrimidin-4-yl)piperidin-4-ol]
Full length human TREX1
  IC50: 1 to 10 µM
[1]
  IC50: > 100 µM
